Assay results reported in US11629135B2 (JUBILANT PRODEL LLC, priority 2017, dated 2023).
Read-outs that look alike come from different tables or passages of the source.

Tests used:
[1] = Metabolic stability in liver microsomes (human); type: in vitro ADME; settings: human liver microsomes 0.5 mg/mL, compound 1 μM, NADPH, up to 30 min
Description: Metabolic Stability in Liver Microsomes
Procedure: Potassium phosphate buffer (66.7 mM, pH 7.4) containing mouse or rat or dog or monkey or human liver microsomes (0.5 mg/mL) was pre-incubated separately with compound (1 μM) and positive control (verapamil, 1 μM) in a 37° C. water bath for 5 min. The reactions were initiated by adding 20 μL of 10 mM NADPH. Reactions without NADPH (0 and 30 min) were also incubated to rule out non-NADPH metabolism or chemical instability in the incubation buffer. All reactions were terminated using 200 μL of ice-cold acetonitrile containing internal standard at 0, 5, 15 and 30 min. The vials were centrifuged at 3000 rpm for 15 min. The reaction mixtures (obtained from the above studies) were extracted, processed and analyzed by LC-MS [Shimadzu SIL LC series (Kyoto, Japan) was coupled to an API-4000 Mass Spectrometer (MDS Sciex, Toronto, Canada)] to monitor the disappearance of compound.

[2] = biological target: T1, CYP2C19 (Homo sapiens, UniProt P33261); test: CYP inhibition in human liver microsomes (CYP2C19); type: in vitro ADME; settings: hydroxylation of omeprazole (CYP2C19 per method), read-out: predicted IC50, hydroxylation of omeprazole
T1 construct: assessed in human liver microsomes (procured from GIBCO Invitrogen); tissue GIBCO Invitrogen; host or cells: human liver microsomes
Description: CYP inhibition potential of compound was assessed in human liver microsomes (procured from GIBCO Invitrogen) against CYP3A4, 2D6, 2C9, 2C19 and 1A2 in the following sequential steps. Standard reaction mixture (final volume 300 μL) contained […] potassium phosphate buffer (pH 7.4), protein (0.1, 0.25, 0.5, 0.5 and 0.5 mg/mL concentration for CYP3A4, 2D6, 2C9 2C19 and 1A2 respectively) and compound (at eight different concentration levels ranging from […], added as 0.9 μL DMSO solution with a final DMSO concentration of […]). The mixtures were pre-incubated at 37±1° C. for 5 min. The reaction (in duplicate) was initiated by addition of 30 μL of NADPH (10 mM). Reaction was terminated at 10 min by adding 300 μL of acetonitrile. The activity of liver microsomes was confirmed with positive controls i.e., monitoring the hydroxylation of midazolam for CYP 3A4, hydroxylation of bufuralol for CYP 2D6, hydroxylation of diclofenac for CYP 2C9, hydroxylation of omeprazole for CYP2C19 and O-Deethylation for CYP 1A2. The reaction mixtures (obtained from the above studies) were extracted, processed and analyzed by LC-MS [Shimadzu SIL LC series (Kyoto, Japan) was coupled to an API-4000 Mass Spectrometer (MDS Sciex, Toronto, Canada)].

[3] = Intravenous and oral pharmacokinetics in mice; type: in vivo, Balb/c mice; settings: for Vd: iv, 2 mg/kg; for half-life: read-out: t1/2, β (converted)
Excerpt: Pharmacokinetics Evaluation of Compound-45: Animal Experiments Details
Institutional Animal Ethical Committee (IAEC) of Jubilant Biosys (IAEC/JDC/2018/158) nominated by CPCSEA (Committee for the Purpose of Control and Supervision of Experiments on Animals) approved the mice pharmacokinetic experiments. Male Balb/c mice (˜6-8 weeks old with body weight range of 22-25 g) were procured from Vivo Biotech, Hyderabad, India. Animals were quarantined in Jubilant Biosys Animal House for a period of 7 days with a 12:12 h light:dark cycles, and prior study the animals were stratified as per body weight. Animals had free access to feed (Altromin Spezialfutter GmbH & Co. KG., Im Seelenkamp 20, D-32791, Lage, Germany) and water ad-libitum.
Intravenous and oral pharmacokinetics study was done at a dose of 2 and 10 mg/kg and at a dose volume of 10 mL/kg. Serial blood samples (200 μL) were collected from retro-orbital plexus at 0.083 (Only for IV), 0.15, 0.5, 1, 2, 4, 8, 10 (only for PO) and 24 h. Blood samples collected in tubes containing K2.EDTA as anticoagulant and centrifuged for 5 min at 14000 rpm in a refrigerated centrifuge (Biofuge, Heraeus, Germany) maintained at 4° C. for plasma separation.
Group I (PO) (22-25 g) received compound-45 at 10 mg/Kg (suspension formulation prepared using 0.5% methylcellulose and Tween-80; dose volume: 10 mL/Kg), whereas group II received IV (24-25 g) received compound-45 intravenously [5% DMSO, 5% Solutol:absolute alcohol (1:1, v/v) and 90% of normal saline; strength: 0.2 mg/mL; dose volume: 10 mL/Kg] at 2.0 mg/Kg dose. Post-dosing serial blood samples (200 μL), sparse sampling was done and at each time point three mice were used for blood sampling) were collected at regular intervals using heparinized capillaries through retro-orbital plexus into polypropylene tubes containing K2.EDTA solution as an anti-coagulant. Animals were allowed to eat feed 2 h post dose of compound-45. Blood concentration-time data of compound-45 was analyzed by non-compartmental method using Phoenix WinNonlin Version 7.0.

[4] = tested on: Caco-2 human intestinal epithelial cells; test: Caco-2 permeability; type: in vitro ADME; settings: 5 μM, bi-directional, 60 min
Description: Procedure: Caco-2 human intestinal epithelial cells were plated in 24-Transwell® dual chamber plates (Millipore, Billerica, Mass., USA) (cell density of 80,000 cells/cm^2 on day-1). The permeability studies were conducted with the monolayers cultured for 21 to 22 days in culture. The integrity of each Caco-2 cell monolayer was certified by trans epithelial electrical resistance (TEER) test (pre-experiment) and by determining the permeability of reference compound i.e., Lucifer yellow. Caco-2 cell monolayers with TEER values greater than 500 Ωcm^2 were considered for experimentation. Digoxin (5 μM) was used as a positive control for P-gp substrate. The concentrations of compound used in the assay was 5 μM. HBSS Buffer was used as the medium for the transport assay and the final concentration of DMSO in spiking solution was 0.05%. The bi-directional permeability study was initiated by adding an appropriate volume of HBSS buffer containing compound to respective apical and basolateral chambers (n=3). An aliquot of sample (100 μL) was taken from both chambers at 0 and 60 min of the incubation period and to this equal volume of acetonitrile was added, mixed gently and centrifuged at 4000 rpm for 10 min. An aliquot of 100 μL was subsequently transferred to the auto-sampler and 10 μL was injected for analysis on LC-MS/MS.

[5] = male, mouse, plasma, Balb C mice, IV dose of 2 mg/Kg
[6] = male, mouse, plasma, Balb C mice, oral dose of 10 mg/Kg

T1 sequence (P33261 whole entry): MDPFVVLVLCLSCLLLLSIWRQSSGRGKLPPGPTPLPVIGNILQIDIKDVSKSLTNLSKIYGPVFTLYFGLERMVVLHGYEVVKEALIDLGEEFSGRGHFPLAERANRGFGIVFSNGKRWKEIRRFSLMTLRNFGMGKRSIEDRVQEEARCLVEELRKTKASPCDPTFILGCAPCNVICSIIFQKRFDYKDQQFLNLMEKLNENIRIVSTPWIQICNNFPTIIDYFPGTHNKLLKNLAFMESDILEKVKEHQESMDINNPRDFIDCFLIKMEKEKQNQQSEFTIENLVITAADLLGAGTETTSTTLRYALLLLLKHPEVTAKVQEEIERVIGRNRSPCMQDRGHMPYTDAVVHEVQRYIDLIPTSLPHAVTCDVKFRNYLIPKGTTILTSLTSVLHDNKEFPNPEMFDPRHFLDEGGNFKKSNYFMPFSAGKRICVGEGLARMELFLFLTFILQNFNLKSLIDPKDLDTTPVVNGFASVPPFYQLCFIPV

COc1nc(OCc2cccc(-c3ccccc3)c2C)nc(OC)c1CN1CCCC[C@H]1C(=O)O [Compound 45, (S)-1-((4,6-dimethoxy-2-((2-methyl-[1,1′-biphenyl]-3-yl)methoxy)pyrimidin-5-yl)methyl)piperidine-2-carboxylic acid]
Metabolic stability in liver microsomes [1]: > 80%
IC50 [2]: > 10 µM
Tlast ([3]; Balb C mice, IV dose of 2 mg/Kg): 8.00 h
Tlast ([3]; Balb C mice, oral dose of 10 mg/Kg): 24.0 h
Oral bioavailability (F %) ([3]; Balb C mice, oral dose of 10 mg/Kg, 10 mg/kg): 90.6%
Vd ([3]; male, Balb/c, mouse, plasma, Balb C mice, IV dose of 2 mg/Kg, read-out: Vd): 0.74 L/kg
Vd ([3]; male, Balb/c, mouse, plasma, Balb C mice, IV dose of 2 mg/Kg, read-out: Vdss): 1.2 L/kg
bioavailability ([3]; male, Balb/c, mouse, plasma, po, 10 mg/kg, Balb C mice, oral dose of 10 mg/Kg, read-out: Oral bioavailability (F %)): 91%
AUC(0-inf) [3, 5]: 4920 ng·h/mL
AUC(0-t) [3, 5]: 4480 ng·h/mL
Cmax [3, 5]: 2110 ng/mL
clearance [3, 5]: 6.77 mL/min/kg
C0 ([3]; male, mouse, plasma, Balb C mice, IV dose of 2 mg/Kg, extrapolated, calculated manually using initial 3 time points): 2130 ng/mL
half-life [3, 5]: 1.27 h
AUC(0-inf) [3, 6]: 21100 ng·h/mL
AUC(0-t) [3, 6]: 20300 ng·h/mL
Cmax [3, 6]: 4840 ng/mL
Tmax [3, 6]: 0.5 h
half-life [3, 6]: 6.32 h
clearance as share of hepatic blood flow (HBF) ([3]; mice, intravenous): 8 % hepatic blood flow
volume of distribution relative to total body water (TBW) ([3]; mice, intravenous): 40 times
Caco-2 efflux [4]: high efflux
Caco-2 permeability [4]: medium permeable
